In general, kon refers to the rate constant with which the complex forms. The term IC50 denotes the concentration needed to halve the response being measured.

Read-outs that look alike come from different tables or passages of the source. Ends that are not written are not given here. Peptide text beside a SMILES is read from it. * marks the point of attachment. FITC = O=C1OC2(c3ccc(O)cc3Oc3cc(O)ccc32)c2ccc(NC(=S)*)cc21; 125I = [125I]*

The source of these data is patent publication US20070026433A1, “Epitope testing using soluble HLA” (priority 2001, published 2007).

For series [1], the target named is T1, sHLA-A*0201 (Homo sapiens, UniProt P04439, D140Y/D185E/D98H/E176V/E277Q/G131W/G231S/I119V/I121R/I166T/I218V/L300P/L318F/N151K/N90K/P208A/P217A/Q86G/Q94H/R138H/R169H/T345S). Nature of the series: biochemical. Particulars: for kon: read-out: association rate constants kon.
The target in series [2] is T1, sHLA-A*0201. Nature of the series: biochemical. Further details: contained the leader peptide, as well as the α1, α2, and α3 coding domains of the HLA heavy chain; made in house; β2m from Fitzgerald Industries International. The format is binding.
Series [3] concerns the target HLA-A*0201 (Homo sapiens, UniProt P04439, D140Y/D185E/D98H/E176V/E277Q/G131W/G231S/I119V/I121R/I166T/I218V/L300P/L318F/N151K/N90K/P208A/P217A/Q86G/Q94H/R138H/R169H/T345S). Particulars: cited from earlier work; for IC50: read-out: cell-free systems (^125I) IC50, published values, 125I peptide tracer.
Series [4] deals with T1, sHLA-A*0201. Nature of the series: Epitope screening at a threshold concentration of 80 μM (FP competition). Particulars: 80 μM peptide, 50 μg/mL sHLA-A*0201, 1 nM P5, β2m 2117 nM.
For series [5], the system named is alleles listed for the B27 supertype. Nature of the series: Multiple-specificity screening of FITC-labeled peptides (supertyping, FP). The format is binding, human. Particulars: 2 nM peptide, 100 μg/ml activated sHLA. The text has this:
(§1) Multiple-specificity screening of FITC-labeled peptides: To approach the problem of supertype analysis, a novel, state-of-the-art screening assay was developed that utilizes high quality soluble HLA and the technique of fluorescence polarization (FP). This assay combination allows the direct measurement of the ratio between free and bound labeled ligand in solution without any separation steps. The technique of FP is based on the principal that if a fluorescent-labeled peptide binds to the sHLA molecule of higher molecular weight, polarization values will increase due to the slower molecular rotation of the bound probe.
(§2) To elaborate peptide cross-reactivity among MHC class I molecules, a panel of 53 single-specificity sHLA receptors was screened for their binding capacity towards a series of fluorescent-labeled peptide ligands. During the process, each peptide candidate (2 nM) was incubated with 100 μg/ml of activated sHLA and peptide/MHC interaction was monitored over time on the Analyst™ AD Assay Detection System (Molecular Devices; Sunnyvale, Calif.). For optimal signal output, b2-microglobulin was added in 2× molar excess of the used sHLA concentration. For all preparations, 1× BGG/PBS was used as buffer. The use of appropriate controls allowed accurate estimation of specific polarization. […]

The target of series [6] is T2, A*1102 (Homo sapiens, UniProt P04439, A114D/D185E/E176A/E43K/F33Y/L180Q/S129P/T187R).
T2 construct: contained the leader peptide, as well as the α1, α2, and α3 coding domains of the HLA heavy chain; made in house
The series is described as above. The format is binding. Particulars: 2 nM peptide, 100 μg/ml activated sHLA.
Source text: as §1, §2

For series [7] the following is noted: cited from earlier work.
For series [8], the target named is T1, sHLA-A*0201. The class given is binding. Particulars: 10 nM pFITC, sHLA-A*0201 titration. The arrangement: contained the leader peptide, as well as the α1, α2, and α3 coding domains of the HLA heavy chain; made in house; β2m from Fitzgerald Industries International.
In series [9] the target is T1, sHLA-A*0201. Nature of the series: Multiple specificity screening by FP. The format is binding. The arrangement: contained the leader peptide, as well as the α1, α2, and α3 coding domains of the HLA heavy chain; made in house; β2m from Fitzgerald Industries International. Particulars: 10 nM peptide, 100 μg/mL activated sHLA. The method, then: Multiple Specificity Screening. To determine the specificity for sHLA-A*0201 as well as potential cross-reactivity to other sHLA alleles, 48 different sHLA alleles were screened for binding with the A*0201 pFITC constructs (FIG. 15). For screening purposes, each peptide candidate (10 nM) was incubated with 100 μg/mL activated sHLA, and the peptide/HLA interaction was monitored over time. As expected, no significant binding was detected to any of the B-alleles tested (FIG. 15B), whereas a high binding affinity was observed between sHLA-A*0201 and the pFITC candidates. An exception was pFITC P3 (FIG. 15A). […] The significant decrease in association kinetics recorded after 0.8 h seems to imply that the HLA class I molecule is not stabilized following exposure to this peptide, irrespective of whether it attempted to bind. […] Thus, modification of the residue at the P4 nonanchor position of pFITC P3 may not affect the specificity and association kinetics of peptide binding but rather seems to affect the stability of the class I peptide interaction.

The mark [10] stands for this setting: read-out: dissociation rate constants.
Where [11] appears, read: read-out: dissociation rate constants koff.
Where [12] appears, read: 50 μg/mL (1059 nM) sHLA-A*0201, β2m 2117 nM, 1 nM FITC-labeled reference peptide P5, read-out: StD comp assay (FP) IC50.

In the case of `CSCC[C@H](NC(=O)[C@H](CC(C)C)NC(=O)[C@H](C)N)C(=O)N[C@@H](CC(=O)O)C(=O)N[C@@H](CCCCN)C(=O)N[C@H](C(=O)N[C@@H](CC(C)C)C(=O)N[C@@H](CCCCNC(=S)Nc1ccc2c(c1)C(=O)OC21c2ccc(O)cc2Oc2cc(O)ccc21)C(=O)N[C@H](C(=O)O)C(C)C)C(C)C` [P5], the kon in series [1] was determined as 86800 M⁻¹ s⁻¹. The koff in [1] (setting [10]) is 0.00019 to 0.00043 s⁻¹; in [1] (setting [11]), 0.000188 s⁻¹. For `CC(C)C[C@H](N)C(=O)N[C@H](C(=O)N[C@@H](Cc1ccccc1)C(=O)NCC(=O)N[C@@H](CCCCNC(=S)Nc1ccc2c(c1)C(=O)OC21c2ccc(O)cc2Oc2cc(O)ccc21)C(=O)N[C@@H](CCC(=O)O)C(=O)N[C@H](C(=O)N[C@H](C(=O)N[C@@H](CCC(=O)O)C(=O)N[C@H](C(=O)O)C(C)C)C(C)C)C(C)C)C(C)C` [P4, L V F G K E V V E V] (H-LVFGK(FITC)EVVEV-OH), in that order: 9900 M⁻¹ s⁻¹, 0.00019 to 0.00043 s⁻¹ and 0.000284 s⁻¹. As for YLLPAIVHI, the figures for the concentration for half-maximal inhibition (IC50) in [2] (setting [12]) and in series [3] were 510 nM and 18 nM, respectively. Consider “FLPSDY(^125I)FPSV (FLPSDY(125I)FPSV; listed as Homo sapiens) [iodinated molecule of earlier publications (Sette et al., 1994a)]”, for which the Kd in series [3] (Sette et al., 1994a, read-out: affinity of the iodinated molecule in earlier publications) was 15.5 nM. For the molecule LVMAPRTVL (listed as Homo sapiens), the “inhibition at 80 μM” value in [4] is “minor”. As for GRAFVTIKK, the binding result in [5] is recorded as “did not bind”. For the same molecule, the binding capacity result in series [6] was “high A*1102 binding capacity”. In the case of KLGEFYNQMM, the figures for the 50% inhibitory concentration (IC50) in series [2] (setting [12]), in [2] (IC50 with different pFITC reference peptides) and in series [2] (IC50 within the different tracer systems) were 2820 nM, 2480 to 10500 nM and 2480 to 10500 nM, respectively.

Turning to fluorescein isothiocyanate [FITC], the pKa entry in series [7] was “approximately 6.5”. `CC[C@H](C)[C@H](NC(=O)[C@H](Cc1c[nH]c2ccccc12)NC(=O)[C@@H](NC(=O)CNC(=O)[C@H](Cc1ccccc1)NC(=O)[C@H](CO)NC(=O)[C@@H](NC(=O)[C@H](CC(C)C)NC(=O)[C@@H](N)Cc1ccc(O)cc1)C(C)C)C(C)C)C(=O)O`: the 50% inhibitory concentration (IC50) in series [3] was 1.9 nM.

Turning to DLVHFASPL, the IC50 in series [2] (setting [12]) was 366000 nM; in series [3], 16700 nM.

As to “N L S K L S L D V (NLSKLSLDV; also: FITC label, position not given here; listed as Homo sapiens) [P3]”, in [8], the “saturation curve / stable complex formation with sHLA-A*0201” value was “not able to form stable complexes with sHLA-A*0201”. Further, the binding result in series [9] was “failed to attain a higher polarization level compared to the other candidates”.
